Laboratory results from PMC10976246, “Amide-to-Triazole Switch in Somatostatin-14-Based Radioligands: Impact on Receptor Affinity and In Vivo Stability” (Pharmaceutics, 2024).
Blank lines part the entries; values can stand above or below the compound they belong to. Numbered stars: 1 amine (or outer) side, 2 acyl side, 3 side chain; on linkers, the order of the positions; unused ones are H or OH. Bridge positions count the residues as written; N and C are the ends. Square brackets hold non-standard residues; d marks the D form. Peptide text beside a SMILES is read from it. * marks the point of attachment. X2 = O=C([C@H](Cc1ccccc1)n1cc([C@H](Cc2ccccc2)N[*:1])nn1)[*:2]; X1 = NC(=O)C[C@H](N[*:1])c1cn([C@@H](Cc2ccccc2)C(=O)[*:2])nn1; DOTA = O=C(O)CN1CCN(CC(=O)O)CCN(CC(=O)*)CCN(CC(=O)O)CC1

Key:
hSST3R = molecular target: T1, hSST3R (Homo sapiens, UniProt P32745); assay: Competition binding against [125I][I-Tyr25]LTT-SST-28, HEK293-SST3R cell membranes; conditions: vs [125I][I-Tyr25]LTT-SST-28, 1 h at 22 °C, mean ± sd
T1 construct: S. Schultz (Jena, Germany); host or cells: HEK293
T1 sequence (P32745 whole entry): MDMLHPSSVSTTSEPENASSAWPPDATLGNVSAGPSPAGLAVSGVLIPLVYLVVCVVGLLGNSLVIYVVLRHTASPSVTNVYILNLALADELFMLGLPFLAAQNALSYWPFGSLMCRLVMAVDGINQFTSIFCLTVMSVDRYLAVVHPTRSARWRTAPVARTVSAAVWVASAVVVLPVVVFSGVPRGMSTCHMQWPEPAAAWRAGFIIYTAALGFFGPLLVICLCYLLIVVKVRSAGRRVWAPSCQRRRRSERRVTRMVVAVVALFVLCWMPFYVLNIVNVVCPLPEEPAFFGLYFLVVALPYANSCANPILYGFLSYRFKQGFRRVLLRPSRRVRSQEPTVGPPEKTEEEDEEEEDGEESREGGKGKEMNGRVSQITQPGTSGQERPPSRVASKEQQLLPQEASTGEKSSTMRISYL
Experimental: After an incubation period of 1 h at 22 °C, the reaction was stopped by dilution with ice-cold washing buffer (10 mM HEPES at pH 7.4, 150 mM NaCl, 3 mL). The samples were filtered through 1%PEI presoaked glass fiber filters using a Brandel® cell harvester. After thorough washing with ice-cold washing buffer (2 × 3 mL), the filters were collected and measured in the γ-counter.

[1] = molecular target: T2, SST2R-expressing AR42J cells (Rattus norvegicus, UniProt P30680); assay: Receptor saturation binding assay in AR42J cells; conditions: 2 h, n = 2–3 in triplicates
T2 construct: The SST2R-expressing rat pancreatic cells (AR42J) were cultured; host or cells: AR42J rat pancreatic cells
T2 sequence (P30680 whole entry): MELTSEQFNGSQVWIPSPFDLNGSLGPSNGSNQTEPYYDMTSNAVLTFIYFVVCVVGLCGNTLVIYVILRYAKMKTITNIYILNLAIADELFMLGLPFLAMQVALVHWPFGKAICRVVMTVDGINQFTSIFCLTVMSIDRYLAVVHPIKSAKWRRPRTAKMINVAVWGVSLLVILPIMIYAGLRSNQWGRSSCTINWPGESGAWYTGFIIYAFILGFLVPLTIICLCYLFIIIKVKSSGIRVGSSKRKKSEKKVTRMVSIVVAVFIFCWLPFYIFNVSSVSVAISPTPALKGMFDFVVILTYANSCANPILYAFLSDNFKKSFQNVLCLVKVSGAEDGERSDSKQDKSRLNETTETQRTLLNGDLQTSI
Experimental: AR42J cells were seeded in six-well plates (1 × 10^6 cells/well) 2 days before the assay. One hour prior to the experiment, the medium was removed, the cells were washed with PBS (1 mL) and fresh assay medium (DMEM with Glutamax-1 and supplemented with 1% FBS (v/v)) was added (1.3 mL/well). […] The determination of the unspecific binding was conducted by incubating each test radioligand in the presence of excess TATE, which was added in 100 μL of PBS to a final concentration of 5 µM. The six-well plates were incubated under standard culturing conditions for 2 h; the medium was removed, the cells were washed with PBS (2 × 1 mL) and lysed as described above. The cell lysates were collected and measured in the γ-counter.

in vitro = in vitro ADME; conditions: human, plasma
Experimental: Plasma stability studies were conducted in vitro by incubating the radioligands (in 100 µL PBS) in 1400 µL of human blood plasma (H4522–20ML, Sigma-Aldrich, Vienna, Austria) to a final concentration of 250 nM (approximately 5 MBq). After an incubation period of 6 h at 37 °C, aliquots of 100 µL were mixed with 100 µL of MeCN for protein precipitation. The mixtures were vortexed and centrifuged for 10 min (15,000× g) at 5 °C and the supernatants were collected. The supernatants (50 µL) were mixed with 0.1% aqueous TFA (50 µL) for posterior γ-HPLC analyses on a Chromolith® RP-18 performance column (2 µm, 4.6 mm × 100 mm; Merck Millipore, Vienna, Austria) eluted at a flow rate of 3 mL/min with the linear gradient from 90% A/10% B to 50% A/50% B in 14 min (A: 0.1% aqueous TFA and B: MeCN) (n = 2).

HEK293-hSST2R xenografts = conditions: male, SCID, mouse, in vivo, iv, 3 nmol, 4 h
in vivo = conditions: male, SCID, mouse, iv, 3 nmol, total radioactivity

IC50 (hSST3R): 3 ± 0.9 nM
Structure (SMILES): C[C@H](NC(=O)CN1CCN(CC(=O)O)CCN(CC(=O)O)CCN(CC(=O)O)CC1)C(=O)NCC(=O)N[C@H]1CSSC[C@@H](C(=O)O)NC(=O)[C@H](CO)NC(=O)[C@H]([C@@H](C)O)NC(=O)[C@H](Cc2ccccc2)NC(=O)[C@H]([C@@H](C)O)NC(=O)[C@H](CCCCN)NC(=O)[C@@H](Cc2c[nH]c3ccccc23)NC(=O)[C@H](Cc2ccccc2)NC(=O)[C@H](Cc2ccccc2)n2cc(nn2)[C@H](CC(N)=O)NC(=O)[C@H](CCCCN)NC1=O [XG1, [DOTA,Asn^5-Ψ[Tz]-Phe^6, D-Trp^8]SST-14] ({DOTA}-AGCK[X1]F[dW]KTFTSC-OH; disulfide 3-13)

Kd [1]: 12 ± 3.88 nM
remaining at 6 h, 250 nM (in vitro): > 90%
Structure (SMILES): C[C@H](NC(=O)CN1CCN(CC(=O)O)CCN(CC(=O)O)CCN(CC(=O)O)CC1)C(=O)NCC(=O)N[C@H]1CSSC[C@@H](C(=O)O)NC(=O)[C@H](CO)NC(=O)[C@H]([C@@H](C)O)NC(=O)[C@H](Cc2ccccc2)NC(=O)[C@H]([C@@H](C)O)NC(=O)[C@H](CCCCN)NC(=O)[C@@H](Cc2c[nH]c3ccccc23)NC(=O)[C@H](Cc2ccccc2)NC(=O)[C@H](Cc2ccccc2)NC(=O)[C@H](CC(N)=O)NC(=O)[C@H](CCCCN)NC1=O [[^111In]In-AT2S, metal not drawn, reference compound]

remaining at 6 h, 250 nM (in vitro): > 90%
kidney uptake (HEK293-hSST2R xenografts): > 200 % IA/g
tissue uptake at 4 h (in vivo; HEK293-hSST2R tumor uptake): 1.61 %ID/g
tissue uptake at 4 h (in vivo; kidney uptake): 310 %ID/g
tissue uptake at 4 h (in vivo; wtHEK293 (SST2R-negative) control tumor uptake): 0.56 %ID/g
Structure (SMILES): C[C@H](NC(=O)CN1CCN(CC(=O)O)CCN(CC(=O)O)CCN(CC(=O)O)CC1)C(=O)NCC(=O)N[C@H]1CSSC[C@@H](C(=O)O)NC(=O)[C@H](CO)NC(=O)[C@H]([C@@H](C)O)NC(=O)[C@H](Cc2ccccc2)NC(=O)[C@H]([C@@H](C)O)NC(=O)[C@H](CCCCN)NC(=O)[C@@H](Cc2c[nH]c3ccccc23)NC(=O)[C@H](Cc2ccccc2)NC(=O)[C@H](Cc2ccccc2)n2cc(nn2)[C@H](CC(N)=O)NC(=O)[C@H](CCCCN)NC1=O [[^111In]In-XG1, metal not drawn] ({DOTA}-AGCK[X1]F[dW]KTFTSC-OH; disulfide 3-13)

Kd [1]: > 50 nM
Structure (SMILES): C[C@H](NC(=O)CN1CCN(CC(=O)O)CCN(CC(=O)O)CCN(CC(=O)O)CC1)C(=O)NCC(=O)N[C@H]1CSSC[C@@H](C(=O)O)NC(=O)[C@H](CO)NC(=O)[C@H]([C@@H](C)O)NC(=O)[C@H](Cc2ccccc2)NC(=O)[C@H]([C@@H](C)O)NC(=O)[C@H](CCCCN)NC(=O)[C@@H](Cc2c[nH]c3ccccc23)NC(=O)[C@H](Cc2ccccc2)n2cc(nn2)[C@H](Cc2ccccc2)NC(=O)[C@H](CC(N)=O)NC(=O)[C@H](CCCCN)NC1=O [[^111In]In-XG2, metal not drawn] ({DOTA}-AGCKN[X2][dW]KTFTSC-OH; disulfide 3-13)
